Laboratory results: patent US6350729B1, “Inhibition of nitric oxide-mediated hypotension and septic shock with iron-containing hemoprotein” (Board of Regents, The University of Texas System, priority 1992, dated 2002)
Where two headings read alike, the source gives them in different places.

Tests used:
[1] = tested on: endotoxin-induced hypotension; assay: Endotoxin-induced hypotension in anesthetized dog, mean arterial blood pressure; assay type: in vivo
Experimental: Experiments were carried out on conditioned mongrel dogs weighing 23-28 kg. Animal care was in accordance with the recommendations of the American Association for Accreditation of Laboratory Animal Care and met all standards prescribed by the Guide for the Care and Use of Laboratory Animals (Committee on Care and Use of Laboratory Animals (1978) Guide for the Care and Use of Laboratory Animals (Natl. Inst. Health, Bethesda, Md.) DHEW Publ. No. (NIH) 78-83.
The dog was fasted overnight before the day of the experiment and was anesthetized with pentobarbital (25 mg/kg, i.v.), orotracheally intubated and ventilated with a Harvard pump at a nominal rate of 12 breaths per minute and a tidal volume of 15 ml/kg. The dog was instrumented with a cordis for the introduction of a Swan-ganz catheter for measurement of central venous and pulmonary arterial pressures as well as an arterial line for continuous blood pressure monitoring via a computer driven analog to digital processor.
After the blood pressure and heart rate was stabilized, endotoxin was administered to the dog as a bolus injection (50 μg/kg, i.v. in 10 ml DPBS. After the onset of hypotension, a rapid infusion of 50 ml hemoglobin (5.0 g commercially available bovine hemoglobin/100 ml) over 20 seconds was administered by a central venous catheter. Cardiovascular changes were monitored for an additional 12 hrs. after hemoglobin administration.
A tracing depicting endotoxin-induced hypotension, its inhibition by hemoglobin, and subsequent administration of bovine serum albumin (5 grams) is shown in FIG. 1. Mean arterial blood pressure declined from 160 mm Hg to 70 mm Hg two hours after endotoxin administration. The hemoglobin (HgB) was subsequently administered as an intravenous bolus. […] This effect lasted approximately 45 minutes before the blood pressure decline resumed. […] On repetition of this experiment, substantially the same results were obtained.

[2] = tested on: rabbit aortic rings; settings: cited from earlier work
[3] = tested on: blood pressure; settings: rabbits; cited from earlier work
[4] = tested on: blood pressure; settings: guinea pigs; cited from earlier work
[5] = Kinetic 96-well microplate assay, capture of NO by Fe2+-myoglobin; assay type: biochemical; settings: 5 μM Mb, endothelial cell cytosol, 500 μM L-arginine, 500 μM NADPH, 80 mM TRIS pH 7.6, 25° C.
Experimental: Nitric oxide formation by endothelial cell cytosol was measured by a novel kinetic 96-well microplate assay. The assay is based on the capture of NO by Fe^2+-myoglobin (Mb) which is subsequently oxidized to Fe^3+-myoglobin. The process of heme oxidation was continuously measured in a kinetic microplate reader (Molecular Devices, Menlo Park Calif.) as the rate of change in OD405-OD650. Data points were collected from all 96 wells every 16 sec. for 30 minutes at 25° C. with shaking prior to each OD measurement. The slope of the best fit regression line (OD/min) was used to calculate the rate of NO-synthesis. OD/min measurements were converted to pmoles NO/min by dividing by the increase in OD405-OD650 measured upon complete oxidation of 1 pmole of reduced Mb with a 10-fold molar excess of potassium ferricyanide. Under the conditions employed, the efficiency of NO capture by Mb approached 100%; neither doubling nor halving the concentration of Mb influenced the Mb oxidation rate. All samples contained 5-30 μl of endothelial cell cytosol (1-6 mg protein/ml) and final concentrations of 5 μM Mb, 500 μM L-arginine, 500 μM NADPH and 80 Mm TRIS, pH 7.6.
Fe^2+-Myoglobin Preparation: 2 mM myoglobin (from horse skeletal muscle, Sigma) was reduced with a sodium dithionite and immediately applied to a Sephadex G-25 column, followed by elution with 50 Mm TRIS buffer, Ph 7.6. […]

Which “subsequent blood pressure decline” value ([1]; endotoxin-induced hypotension, 5 grams given after the hemoglobin effect ended) does the source give for “bovine serum albumin: bovine serum albumin (5 grams) given as protein comparison after hemoglobin [reference compound]” here?
Its value is “only slightly influenced”.

Which results are given for “hemoglobin: commercially available bovine hemoglobin, 5.0 g/100 ml, iron hemoprotein given intravenously”?
endotoxin-induced mean arterial decline (FIG. 1) ([1]; FIG. 1 legend): interrupted; duration of effect before the blood pressure decline resumed ([1]; endotoxin 50 μg/kg i.v., 50 ml of 5.0 g/100 ml bovine hemoglobin over 20 seconds): approximately 45 minutes; blood pressure drop ([1]; endotoxin 50 μg/kg i.v., intravenous bolus after mean arterial pressure fell from 160 to 70 mm Hg at two hours): abrogated; hypotension ([1]; endotoxin 50 μg/kg i.v., intravenous bolus after onset of hypotension): partially reversed; endothelium-dependent relaxation induced by acetylcholine or by A23187 ([2]; 1 μM): reduced; endothelium-dependent relaxation induced by acetylcholine or by A23187 ([2]; 10 μM): abolished

Which “effect on blood pressure” value [3] does the source give for `CNC(=N)NCCC[C@H](N)C(=O)O` [N^G-methyl-L-arginine] here?
The value was “increase blood pressure”.

And the “effect on blood pressure” value [4]?
Its value is “increase blood pressure”.

B1: Mb: myoglobin from horse skeletal muscle, Sigma, reduced to Fe2+ form (protein, UniProt P68082 2-154, looked up)
Myoglobin: GLSDGEWQQVLNVWGKVEADIAGHGQEVLIRLFTGHPETLEKFDKFKHLKTEAEMKASEDLKKHGTVVLTALGGILKKKGHHEAELKPLAQSHATKHKIPIKYLEFISDAIIHVLHSKHPGDFGADAQGAMTKALELFRNDIAAKYKELGFQG
Which “efficiency of NO capture” value [5] does the source give for B1 here?
The value was roughly 100%.
